This experiment addresses T1, human Nav1.2 isoform (hNav1.2) (Homo sapiens, UniProt Q99250).
T1 construct: gene SCN2A
The experiment in a line: automated patch clamp, CHO cells transfected with hNav1.[…]. Format: cell-based.

2 compounds from publication PMC3764405, “Synthesis and evaluation of a ^125I-labeled iminodihydroquinoline-derived tracer for imaging of voltage-gated sodium channels^” (Bioorganic & Medicinal Chemistry Letters, 2013) can be followed below.

The term IC50 denotes the concentration at which inhibition is half-maximal. Low readings indicate greater potency in that assay, high ones weaker potency in that assay.

T1 sequence (Q99250 whole entry, canonical isoform): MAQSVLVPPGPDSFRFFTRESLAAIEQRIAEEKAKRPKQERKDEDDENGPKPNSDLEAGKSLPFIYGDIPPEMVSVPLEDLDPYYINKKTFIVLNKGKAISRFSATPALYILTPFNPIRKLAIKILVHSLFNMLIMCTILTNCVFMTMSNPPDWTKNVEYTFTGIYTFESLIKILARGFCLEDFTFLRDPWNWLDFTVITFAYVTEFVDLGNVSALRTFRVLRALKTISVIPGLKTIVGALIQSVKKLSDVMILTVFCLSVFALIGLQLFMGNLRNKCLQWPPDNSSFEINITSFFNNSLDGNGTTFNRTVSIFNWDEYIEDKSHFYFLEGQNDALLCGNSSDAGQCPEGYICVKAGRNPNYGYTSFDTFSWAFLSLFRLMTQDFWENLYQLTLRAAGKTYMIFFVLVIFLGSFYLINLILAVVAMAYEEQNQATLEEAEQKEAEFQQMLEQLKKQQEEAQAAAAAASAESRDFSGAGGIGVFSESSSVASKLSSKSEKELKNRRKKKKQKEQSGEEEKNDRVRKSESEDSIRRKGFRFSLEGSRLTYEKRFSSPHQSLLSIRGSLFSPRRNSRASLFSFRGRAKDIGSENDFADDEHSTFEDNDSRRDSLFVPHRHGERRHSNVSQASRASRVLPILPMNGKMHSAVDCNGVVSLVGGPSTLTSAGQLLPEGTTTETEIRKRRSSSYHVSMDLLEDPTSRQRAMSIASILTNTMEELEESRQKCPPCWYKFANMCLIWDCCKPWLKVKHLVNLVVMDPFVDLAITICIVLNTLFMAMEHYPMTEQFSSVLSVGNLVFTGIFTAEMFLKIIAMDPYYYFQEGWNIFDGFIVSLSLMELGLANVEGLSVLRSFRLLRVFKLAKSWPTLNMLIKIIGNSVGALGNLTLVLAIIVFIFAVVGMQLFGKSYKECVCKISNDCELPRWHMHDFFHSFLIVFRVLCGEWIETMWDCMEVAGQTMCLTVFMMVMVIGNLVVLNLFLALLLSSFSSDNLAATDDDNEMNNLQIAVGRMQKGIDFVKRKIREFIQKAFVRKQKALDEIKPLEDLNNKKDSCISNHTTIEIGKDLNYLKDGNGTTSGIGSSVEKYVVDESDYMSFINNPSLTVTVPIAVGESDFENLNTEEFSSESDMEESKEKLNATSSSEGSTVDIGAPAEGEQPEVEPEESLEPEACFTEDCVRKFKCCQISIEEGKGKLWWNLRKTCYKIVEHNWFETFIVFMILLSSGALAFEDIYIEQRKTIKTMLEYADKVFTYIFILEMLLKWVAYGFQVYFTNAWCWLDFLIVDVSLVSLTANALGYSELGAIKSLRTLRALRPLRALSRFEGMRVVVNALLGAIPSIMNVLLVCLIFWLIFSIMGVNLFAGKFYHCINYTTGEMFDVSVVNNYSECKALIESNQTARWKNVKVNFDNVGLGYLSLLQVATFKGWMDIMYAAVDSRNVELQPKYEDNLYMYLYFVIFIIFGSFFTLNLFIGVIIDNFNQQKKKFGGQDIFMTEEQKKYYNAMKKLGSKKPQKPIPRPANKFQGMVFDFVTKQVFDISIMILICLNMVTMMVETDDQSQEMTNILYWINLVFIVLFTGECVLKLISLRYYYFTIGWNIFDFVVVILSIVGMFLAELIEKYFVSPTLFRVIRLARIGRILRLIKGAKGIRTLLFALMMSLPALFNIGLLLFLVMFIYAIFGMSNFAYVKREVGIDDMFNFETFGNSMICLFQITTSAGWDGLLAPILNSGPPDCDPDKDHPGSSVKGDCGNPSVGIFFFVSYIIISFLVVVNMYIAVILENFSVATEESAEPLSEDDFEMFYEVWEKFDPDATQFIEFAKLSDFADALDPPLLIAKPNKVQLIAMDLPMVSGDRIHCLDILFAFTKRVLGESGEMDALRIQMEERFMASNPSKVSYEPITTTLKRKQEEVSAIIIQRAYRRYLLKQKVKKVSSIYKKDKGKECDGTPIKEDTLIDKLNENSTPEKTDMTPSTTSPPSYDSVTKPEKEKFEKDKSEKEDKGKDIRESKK

Turning to `CCCCCN=c1ccn(Cc2ccccc2)c2cc(Cl)ccc12` [WIN17317-3], the IC50 is 2200 ± 1200 nM.

As for `CCCCCN=c1ccn(Cc2ccccc2)c2cc(I)ccc12` [compound 10, 10], the IC50 is 1500 ± 500 nM.
